Data published in patent publication US8735384B2, “Amino heteroaryl compounds as beta-secretase modulators and methods of use” (Amgen Inc., priority 2010, dated 2014).
pIC50: −log10 of the molar value. Where two headings read alike, the source gives them in different places.

Key:
[1] = test system: Aβ40 in conditioned medium of cells stably expressing Amyloid Precursor Protein (APP); experiment: In vitro BACE cell-based assay (HEK cell assay), Aβ40 sandwich ELISA; conditions: inhibition of Aβ40, 24 h incubation, read-out: HEK cell assay (IC50 class)
Method: In Vitro BACE Cell-Based Assay:
The cell-based assay measures inhibition or reduction of Aβ40 in conditioned medium of test compound treated cells expressing amyloid precursor protein.
Cells stably expressing Amyloid Precursor Protein (APP) were plated at a density of 40K cells/well in 96 well plates (Costar). The cells were cultivated for 24 hours at 37° C. and 5% CO2 in DMEM supplemented with 10% FBS. The test compounds were then added to cells in 10-point dose response concentrations with the starting concentration being either 100 μM or 10 μM. The compounds were diluted from stock solutions in DMSO and the final DMSO concentration of the test compounds on cells was 0.1%. After 24 h of incubation with the test compounds the supernatant conditioned media was collected and the Aβ 40 levels were determined using a sandwich ELISA. The IC50 of the compound was calculated from the percent of control or percent inhibition of Aβ 40 as a function of the concentration of the test compound.
The sandwich ELISA to detect Aβ 40 was performed in 96 well microtiter plates, which were pre-treated with goat anti-rabbit IgG (Pierce). The capture and detecting antibody pair that were used to detect Aβ 40 from cell supernatants were affinity purified pAb40 (Biosource) and biotinylated 6E10 (Signet Labs Inc.), respectively. The optimal concentration for the pAb40 antibody was 3 μg/ml in Superblock/TBS (Pierce) that was supplemented with 0.05% Tween 20 (Sigma). Optimal concentration for the detection antibody 6E10-biotinylated was 0.5 μg/ml in Superblock/TBS (Pierce) that had been supplemented with 2% normal goat serum and 2% normal mouse serum.
Cellular supernatants were incubated with the capture antibody for 3 h at 4° C., followed by 3 wash steps in TBS-tween (0.05%). The detecting antibody incubation was for 2 h at 4° C., again followed by the wash steps as described previously. The final readout of the ELISA is Time-Resolved Fluorescence (counts per minute) using Delfia reagents Streptavidin-Europium and Enhancement solutions (Perkin Elmer) and the Victor 2 multilabel counter (Perkin Elmer).

[2] = molecular target: BACE1 (Homo sapiens, UniProt P56817); experiment: In vitro enzymatic BACE FRET assay; assay type: biochemical; conditions: beta secretase enzyme 0.2 nM, FRET substrate 50 nM, pH 4.2
Method: In Vitro Enzymatic BACE FRET (Fluorescence Resonance Energy Transfer) Assay (Enzyme Assay Data in Table 1)
The assay buffer used in this screen is 0.05 M acetate, pH 4.2, 10% DMSO final, 100 uM genapol (which is a nonionic detergent, below its Critical Micelle Concentration). The beta secretase enzyme (0.2 nM) is pre-incubated for one hour with inhibitors, typically in about 1 uL of DMSO according to a serial dilution, are added thereto. The assay is effectively started by the addition of FRET substrate (50 nM) and the combination is incubated for one hour. The FRET assay is terminated with by addition of Tris buffer, which raises the pH to neutrality, and the fluorescence is determined. The FRET substrate is a peptide with commercially available fluorophore and quencher, on opposite sides of the BACE cleavage site. Proteolytic cleavage of the FRET substrate releases quenching of fluorescence (excitation […] and […]).
Of the compounds tested, the in-vitro BACE FRET enzyme data for each of Examples 1-220, where available at the time of filing this application, is provided in Table 1.

[3] = read-out: BACE1 FRET assay (IC50 class)
[4] = read-out: BACE1 FRET assay (IC50, numeric)

Chain of BACE1 (P56817 46-501, species assumed): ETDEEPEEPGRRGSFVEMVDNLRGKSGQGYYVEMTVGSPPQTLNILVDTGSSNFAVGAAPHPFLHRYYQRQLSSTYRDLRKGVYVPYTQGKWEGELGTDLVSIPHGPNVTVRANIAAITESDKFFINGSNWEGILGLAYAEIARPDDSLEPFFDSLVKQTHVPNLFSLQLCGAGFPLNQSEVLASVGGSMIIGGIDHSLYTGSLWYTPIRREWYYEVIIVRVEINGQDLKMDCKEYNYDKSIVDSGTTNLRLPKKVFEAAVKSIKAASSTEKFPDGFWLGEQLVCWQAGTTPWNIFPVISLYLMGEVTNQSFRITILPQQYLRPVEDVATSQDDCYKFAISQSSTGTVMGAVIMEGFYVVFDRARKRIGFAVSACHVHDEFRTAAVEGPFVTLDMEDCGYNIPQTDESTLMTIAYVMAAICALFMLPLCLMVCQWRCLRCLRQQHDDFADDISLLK

Question: How did the pIC50 ([1]; Homo sapiens, HEK293, 24 h) turn out when `Cc1ccc(C(=O)c2cccc(C)c2-c2ccc3nc(N)c(N4CCOCC4)cc3c2)cc1` [Example 178, (2-(2-amino-3-morpholinoquinolin-6-yl)-3-methylphenyl)(p-tolyl)methanone] was run?
Answer: 5.30 to 6.00

Question: And the pIC50 [2, 3]?
Answer: > 7.00

Question: How did the pIC50 ([1]; Homo sapiens, HEK293, 24 h) turn out when `Cc1cccc(Nc2ccccc2)c1-c1ccc2nc(N)c(N3CCOCC3)cc2c1` [Example 55, 6-(2-methyl-6-(phenylamino)phenyl)-3-morpholinoquinolin-2-amine] was run?
Answer: < 5.30

Question: And the pIC50 [2, 3]?
Answer: 6.30 to 7.00

Question: What does the source list for `Cc1cccc(C(=O)N2CCSC2)c1-c1ccc2nc(N)c(N3CCOCC3)cc2c1` [Example 89, (2-(2-amino-3-morpholinoquinolin-6-yl)-3-methylphenyl)(thiazolidin-3-yl)methanone]?
Answer: pIC50 ([1]; Homo sapiens, HEK293, 24 h): 6.00 to 6.30; pIC50 [2, 3]: > 7.00

Question: `CC(C)(C)CCc1cccc(C(=O)N2CC[C@@H](F)C2)c1-c1ccc2nc(N)c(N3CCOCC3)cc2c1` [Example 47, (R)-(2-(2-amino-3-morpholinoquinolin-6-yl)-3-(3,3-dimethylbutyl)phenyl)(3-fluoropyrrolidin-1-yl)methanone] was tested. Which pIC50 ([1]; Homo sapiens, HEK293, 24 h) did it give?
Answer: > 7.00

Question: What about the pIC50 [2, 3] of the same compound?
Answer: > 7.00

Question: `Cc1cccc(C(=O)C2CC2)c1-c1ccc2nc(N)c(N3CCOCC3)cc2c1` [Example 186, (2-(2-amino-3-morpholinoquinolin-6-yl)-3-methylphenyl)(cyclopropyl)methanone] was tested. Which pIC50 ([1]; Homo sapiens, HEK293, 24 h) did it give?
Answer: 5.30 to 6.00

Question: What about the pIC50 [2, 3] of the same compound?
Answer: 6.30 to 7.00

Question: With `CC(C)(C)CCc1cccc(C(=O)N2CC[C@H](F)C2)c1-c1ccc2nc(N)c(N3CCOCC3)cc2c1` [Example 166, (S)-(2-(2-amino-3-morpholinoquinolin-6-yl)-3-(3,3-dimethylbutyl)phenyl)(3-fluoropyrrolidin-1-yl)methanone] as the compound, how does the pIC50 ([1]; Homo sapiens, HEK293, 24 h) read?
Answer: > 7.00

Question: What about the pIC50 [2, 3] of the same compound?
Answer: > 7.00

Question: How did the pIC50 ([1]; Homo sapiens, HEK293, 24 h) turn out when `Cc1cccc(C(=O)N(C)c2ccccc2)c1-c1ccc2nc(N)c(N3CCOCC3)cc2c1` [Example 126, 2-(2-amino-3-morpholinoquinolin-6-yl)-N,3-dimethyl-N-phenylbenzamide] was run?
Answer: 5.30 to 6.00

Question: And the pIC50 [2, 3]?
Answer: 6.30 to 7.00

Question: `COc1ccc(C(=O)c2cccc(C)c2-c2ccc3nc(N)c(N4CCOCC4)cc3c2)cc1` [Example 175, (2-(2-amino-3-morpholinoquinolin-6-yl)-3-methylphenyl)(4-methoxyphenyl)methanone] was tested. Which pIC50 ([1]; Homo sapiens, HEK293, 24 h) did it give?
Answer: 5.30 to 6.00

Question: What about the pIC50 [2, 3] of the same compound?
Answer: > 7.00

Question: `Cc1cccc(C(=O)N2CCOCC2)c1-c1ccc2nc(N)c(N3CCOCC3)cc2c1` [Example 59, (2-(2-amino-3-morpholinoquinolin-6-yl)-3-methylphenyl)(morpholino)methanone] was tested. Which pIC50 ([1]; Homo sapiens, HEK293, 24 h) did it give?
Answer: 5.30 to 6.00

Question: And the pIC50 [2, 3]?
Answer: 6.30 to 7.00

Question: `CCCN(CC1CC1)C(=O)c1cccc(C)c1-c1ccc2nc(N)c(N3CCOCC3)cc2c1` [Example 111, 2-(2-amino-3-morpholinoquinolin-6-yl)-N-(cyclopropylmethyl)-3-methyl-N-propylbenzamide] was tested. Which pIC50 ([1]; Homo sapiens, HEK293, 24 h) did it give?
Answer: < 5.30

Question: What about the pIC50 [2, 4] of the same compound?
Answer: 5.81

Question: With `Cc1cccc(/C(=N/O)c2ccccc2)c1-c1ccc2nc(N)c(N3CCOCC3)cc2c1` [Example 190, (E)-(2-(2-amino-3-morpholinoquinolin-6-yl)-3-methylphenyl)(phenyl)methanone oxime] as the compound, how does the pIC50 [1] read?
Answer: 6.30 to 7.00

Question: What about the pIC50 [2, 3] of the same compound?
Answer: > 7.00

Question: How did the pIC50 ([1]; Homo sapiens, HEK293, 24 h) turn out when `Cc1cccc(C(=O)N2C(C)CCCC2C)c1-c1ccc2nc(N)c(N3CCOCC3)cc2c1` (stereo not drawn) [Example 124, (2-(2-amino-3-morpholinoquinolin-6-yl)-3-methylphenyl)(2,6-dimethylpiperidin-1-yl)methanone] was run?
Answer: 5.30 to 6.00

Question: What about the pIC50 [2, 3] of the same compound?
Answer: > 7.00

Question: Which results are given for `Cc1cccc(C(=O)N2CC[C@@H](C)C2)c1-c1ccc2nc(N)c(N3CCOCC3)cc2c1` [Example 101, (R)-(2-(2-amino-3-morpholinoquinolin-6-yl)-3-methylphenyl)(3-methylpyrrolidin-1-yl)methanone]?
Answer: pIC50 ([1]; Homo sapiens, HEK293, 24 h): 6.00 to 6.30; pIC50 [2, 3]: > 7.00

Question: How did the pIC50 ([1]; Homo sapiens, HEK293, 24 h) turn out when `Cc1cccc(COc2cc(C(F)(F)F)ccc2Cl)c1-c1ccc2nc(N)c(N3CCOCC3)cc2c1` [Example 208, 6-(2-((2-chloro-5-(trifluoromethyl)phenoxy)methyl)-6-methylphenyl)-3-morpholinoquinolin-2-amine] was run?
Answer: 6.30 to 7.00

Question: What about the pIC50 [2, 3] of the same compound?
Answer: > 7.00

Question: With `CC(C)(C)CCc1cccc(C(=O)N2CCCC2)c1-c1ccc2nc(N)c(N3C[C@@H]4C[C@H]3CO4)cc2c1` [Example 165, (2-(2-amino-3-((1S,4S)-2-oxa-5-azabicyclo[2.2.1]heptan-5-yl)quinolin-6-yl)-3-(3,3-dimethylbutyl)phenyl)(pyrrolidin-1-yl)methanone] as the compound, how does the pIC50 ([1]; Homo sapiens, HEK293, 24 h) read?
Answer: > 7.00

Question: And the pIC50 [2, 3]?
Answer: > 7.00

Question: What does the source list for `CCCN(C(=O)c1cccc(C)c1-c1ccc2nc(N)c(N3CCOCC3)cc2c1)C(C)C` [Example 106, 2-(2-amino-3-morpholinoquinolin-6-yl)-N-isopropyl-3-methyl-N-propylbenzamide]?
Answer: pIC50 ([1]; Homo sapiens, HEK293, 24 h): < 5.30; pIC50 [2, 3]: 6.00 to 6.30

Question: How did the pIC50 ([1]; Homo sapiens, HEK293, 24 h) turn out when `Cc1cccc(C(=O)c2ccccc2)c1-c1ccc2nc(N)c(N3CCOCC3)cc2c1` [Example 2, (2-(2-amino-3-morpholinoquinolin-6-yl)-3-methylphenyl)(phenyl)methanone] was run?
Answer: 5.30 to 6.00

Question: What about the pIC50 [2, 3] of the same compound?
Answer: > 7.00

Question: Which results are given for `Cc1cccc(C(=O)N2CCC(F)CC2)c1-c1ccc2nc(N)c(N3CCOCC3)cc2c1` [Example 95, (2-(2-amino-3-morpholinoquinolin-6-yl)-3-methylphenyl)(4-fluoropiperidin-1-yl)methanone]?
Answer: pIC50 ([1]; Homo sapiens, HEK293, 24 h): 5.30 to 6.00; pIC50 [2, 3]: > 7.00

Question: What does the source list for `CSC1=NCCN1C(=O)c1cccc(C)c1-c1ccc2nc(N)c(N3CCOCC3)cc2c1` [Example 114, (2-(2-amino-3-morpholinoquinolin-6-yl)-3-methylphenyl)(2-(methylthio)-4,5-dihydro-1H-imidazol-1-yl)methanone]?
Answer: pIC50 ([1]; Homo sapiens, HEK293, 24 h): < 5.30; pIC50 [2, 4]: 5.94

Question: What does the source list for `Cc1cccc(C(=O)Cc2ccccc2)c1-c1ccc2nc(N)c(N3CCOCC3)cc2c1` [Example 185, 1-(2-(2-amino-3-morpholinoquinolin-6-yl)-3-methylphenyl)-2-phenylethanone]?
Answer: pIC50 ([1]; Homo sapiens, HEK293, 24 h): 5.30 to 6.00; pIC50 [2, 3]: > 7.00

Question: `Cc1cccc(C(=O)N2CCCC2C(C)C)c1-c1ccc2nc(N)c(N3CCOCC3)cc2c1` (stereo not drawn) [Example 66, (2-(2-amino-3-morpholinoquinolin-6-yl)-3-methylphenyl)(2-isopropylpyrrolidin-1-yl)methanone] was tested. Which pIC50 ([1]; Homo sapiens, HEK293, 24 h) did it give?
Answer: 6.30 to 7.00

Question: What about the pIC50 [2, 3] of the same compound?
Answer: > 7.00

Question: Which results are given for `CC=CC(=O)c1cccc(C)c1-c1ccc2nc(N)c(N3CCOCC3)cc2c1` [Example 183, 1-(2-(2-amino-3-morpholinoquinolin-6-yl)-3-methylphenyl)but-2-en-1-one]?
Answer: pIC50 ([1]; Homo sapiens, HEK293, 24 h): 5.30 to 6.00; pIC50 [2, 3]: 6.30 to 7.00

Question: With `CCC1CN(c2cc3cc(-c4c(C)cccc4C(=O)N4CCCC4)ccc3nc2N)CCO1` (stereo not drawn) [Example 21, (2-(2-amino-3-(2-ethylmorpholino)quinolin-6-yl)-3-methylphenyl)(pyrrolidin-1-yl)methanone] as the compound, how does the pIC50 ([1]; Homo sapiens, HEK293, 24 h) read?
Answer: 5.30 to 6.00

Question: What about the pIC50 [2, 3] of the same compound?
Answer: > 7.00

Question: `Cc1ccc(C(=O)N2CCCC2)c(-c2ccc3nc(N)c(N4CCOCC4)cc3c2)c1` [Example 150, (2-(2-amino-3-morpholinoquinolin-6-yl)-4-methylphenyl)(pyrrolidin-1-yl)methanone] was tested. Which pIC50 ([1]; Homo sapiens, HEK293, 24 h) did it give?
Answer: 6.30 to 7.00

Question: And the pIC50 [2, 3]?
Answer: > 7.00

Question: `Cc1cccc(N(C)C(=O)CC(C)(C)C)c1-c1ccc2nc(N)c(N3CCOCC3)cc2c1` [Example 50, N-(2-(2-amino-3-morpholinoquinolin-6-yl)-3-methylphenyl)-N,3,3-trimethylbutanamide] was tested. Which pIC50 ([1]; Homo sapiens, HEK293, 24 h) did it give?
Answer: 5.30 to 6.00

Question: What about the pIC50 [2, 3] of the same compound?
Answer: 6.00 to 6.30

Question: Which results are given for `C=CCN(CC=C)C(=O)c1cccc(C)c1-c1ccc2nc(N)c(N3CCOCC3)cc2c1` [Example 116, N,N-diallyl-2-(2-amino-3-morpholinoquinolin-6-yl)-3-methylbenzamide]?
Answer: pIC50 ([1]; Homo sapiens, HEK293, 24 h): 5.30 to 6.00; pIC50 [2, 3]: 6.30 to 7.00

Question: What does the source list for `Cc1cccc(C(c2ccccc2)N2CCCC2)c1-c1ccc2nc(N)c(N3CCOCC3)cc2c1` (stereo not drawn) [Example 9, 6-(2-methyl-6-(phenyl(pyrrolidin-1-yl)methyl)phenyl)-3-morpholinoquinolin-2-amine]?
Answer: pIC50 ([1]; Homo sapiens, HEK293, 24 h): 6.30 to 7.00; pIC50 [2, 3]: 6.00 to 6.30
